Test results as given in patent US20260152527A1, “NOVEL MELANOCORTIN ANALOGS” (priority 2022, published 2026).
Values after ≈ are worked out from the molar mass of the structure shown. Where two headings read alike, the source gives them in different places. Positions of bridges follow the written chain, without caps; N, C: chain ends. Non-standard residues stand in square brackets, D forms with d. Residues, ends and D or L forms follow the SMILES beside them. Triazole bridges read from a SMILES are 1,4-linked. *: point of attachment. Benzoyl(3,5-(OH)2) = O=C(c1cc(O)cc(O)c1)*; Lys(N3) = [N-]=[N+]=NCCCC[C@H](N)C(=O)O; dPhe(4-F) = N[C@H](Cc1ccc(F)cc1)C(=O)O; Nle = CCCC[C@H](N)C(=O)O; Pra = C#CC[C@H](N)C(=O)O

Experiments:
[1] = Thermodynamic solubility study in water; assay type: physicochemical; conditions: Table 8; read-out: Solubility
Procedure: The study was conducted in water. Water was added into compound powder to make a 10 mg/mL solution. Sample tubes were shaken at the vibrator for 1 hour (1000 rpm) and then equilibrated overnight at room temperature. Samples were centrifuged at 12000 rpm for 10 min to precipitate undissolved particles. Supernatants were transferred from tubes to a new plate. An aliquot of the supernatant after centrifugation was taken from each well, then analyzed by LC-MS/MS. The concentration of the supernatants was quantified by a standard curve.

[2] = molecular target: T1, human recombinant MC4R (Homo sapiens, UniProt P32245); assay: Ca2+ signalling functional assay, MC4R stable cell line (CHO-K1/Gα15); assay type: cell-based
T1 construct: host or cells: CHO-K1/Gα15
T1 sequence (P32245 whole entry): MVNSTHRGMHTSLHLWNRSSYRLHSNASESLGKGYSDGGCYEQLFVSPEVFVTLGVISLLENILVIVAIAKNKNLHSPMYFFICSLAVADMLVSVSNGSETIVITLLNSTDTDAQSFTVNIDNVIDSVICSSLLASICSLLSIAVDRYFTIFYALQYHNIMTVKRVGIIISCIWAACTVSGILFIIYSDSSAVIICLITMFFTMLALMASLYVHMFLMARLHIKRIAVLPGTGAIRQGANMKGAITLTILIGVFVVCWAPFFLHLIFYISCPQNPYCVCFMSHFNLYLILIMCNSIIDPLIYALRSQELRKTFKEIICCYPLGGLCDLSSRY
Procedure: The Ca^2+ signalling functional assay was performed on a human recombinant MC4R stable cell line (CHO-K1/Gα15, GenScript). The cells were cultured at 37° C. and 5% CO2 with culture medium (90% Ham's F-12K (Kaighn's)+10% FBS+8 μg/mL Puromycin+100 μg/mL Hygromycin B). Cells were washed with PBS and then detached by incubation with 0.05% (w/v) Trypsin EDTA at 37° C. for 2-5 mins. Detached cells were suspended in Ham's F-12K (Kaighn's) (containing 10% FBS) and a 50 μL cell suspension was seeded into each well of a 384-well assay plate at a density of 15,000 cells/well. Cells were allowed to settle overnight at 37° C., 5% CO2. The next day, the assay plate was centrifuged and the media was replaced with dye (1×) in assay buffer (containing HBSS, HEPES 20 mM and probenecid 1 mM) and incubated for 1 h at 37° C. […] Then, 100 nL of compounds were transferred to the compound plate by the Echo machine. 30 μL assay buffer was added to the compounds plate and then shaken for 20 to 40 minutes. The plates were placed on the FLIPR and 15 μL of the compound was added to each well, then calcium flux signal was measured.

[3] = molecular target: T2, human recombinant MC1R (Homo sapiens, UniProt Q01726); assay: cyclic AMP (cAMP) functional assay, MC1R stable cell line (CHO-K1); assay type: cell-based;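 note: cells with test compound for 60 min at room temperature in buffer containing IBMX, then cAMP quantified by Eu-cAMP tracer and ULight anti-cAMP detection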
T2 construct: host or cells: CHO-K1
T2 sequence (Q01726 whole entry): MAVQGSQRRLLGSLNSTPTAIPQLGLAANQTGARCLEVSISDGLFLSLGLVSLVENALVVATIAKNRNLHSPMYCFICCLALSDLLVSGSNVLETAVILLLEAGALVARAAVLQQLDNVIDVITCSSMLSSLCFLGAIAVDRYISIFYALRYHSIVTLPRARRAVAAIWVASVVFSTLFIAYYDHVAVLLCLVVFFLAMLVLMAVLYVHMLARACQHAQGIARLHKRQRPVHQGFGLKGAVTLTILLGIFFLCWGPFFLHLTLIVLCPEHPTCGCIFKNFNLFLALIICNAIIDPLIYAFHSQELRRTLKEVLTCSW
Procedure: The cyclic AMP (cAMP) functional assay was performed on a human recombinant MC1R stable cell line (CHO-K1, GenScript). The cells were cultured at 37° C. and 5% CO2 with culture medium (90% Ham's F-12K (Kaighn's)+10% FBS+400 μg/mL G418). […] Then, 100 nL of compounds were transferred to the assay plate by the Echo machine. Cells were washed with PBS and then detached by incubation with 0.05% (w/v) Trypsin EDTA at 37° C. for 2 to 5 mins. Cells were collected with stimulation buffer (1×HBSS with 5 mM HEPES+0.2 mM IBMX+0.1% BSA) and 10 ul of cells (the density of 2,500 cells/well) solution was transferred to assay plate, centrifuged at 600 rpm for 3 min and then incubated with compounds at room temperature for 60 min. After that, 5 μL 4×Eu-cAMP tracer solution and 5 μL 4×ULight™-anti-cAMP solution was added into the cells, centrifuged at 600 rpm for 3 min and incubated for 60 min. The cAMP signal was detected with Envision® Multimode Plate Reader (PerkinElmer).

[4] = In vivo topical administration pharmacokinetics of K173, rabbit (aqueous humor, cornea); conditions: for level at 0.5 h / level at 1 h / level at 2 h / level at 4 h / level at 8 h / level at 24 h: aqueous humor, topical or ocular; for level at 0.5 h: 30 Min post-last dose; for level at 1 h: 1 hr post-last dose; for level at 2 h: 2 hr post-last dose; for level at 4 h: 4 hr post-last dose; for level at 8 h: 8 hr post-last dose; for level at 24 h: 24 hr post-last dose
Procedure: Animals were not tranquilized for the examinations.
The remaining ocular tissues were discarded. Ocular samples were stored −80° C.
The rabbit efficacy model can be used to determine if QD or BID dosing is optimal for clinical utility.

[5] = In vivo topical administration pharmacokinetics / tissue distribution of K173, rat; conditions: four days of BID topical dosing
Procedure: To evaluate the pharmacokinetics of the peptide formulations following topical administration a study in rats was undertaken.
Treatment was administered twice daily (BID) with approximately 6-8 hours between BID doses.
All animals underwent twice daily cage side clinical observations with particular attention paid to the eyes. Animals were not tranquilized for the examinations.
When animals were terminal, blood was collected by inserting a 25G needle into the heart and the animal was exsanguinated and the blood was collected into K2EDTA tubes for plasma collection. […] Once centrifuged, the clear plasma was transferred to a prelabelled polypropylene tube, snap frozen and stored at approximately −80° C.
Following euthanasia, eyes were enucleated and rinsed twice with fresh ice-cold PBS. […] The anterior segment and lens were removed and the neurosensory retina was dissected into pre-weighed 2 mL polypropylene tube, re-weighed and snap frozen. The brain was collected and weighted and the hypothalamus, hippocampus, and remining brain were dissected, placed in pre-weighted polypropylene tubes, re-weighed, and snap frozen. All tissues were stored at −80° C.
The concentrations of K173 in the aqueous humor, retina, hypothalamus, hippocampus, remaining brain tissue, and plasma was measured and the values are provided in Table 7.

[6] = rabbit
From the text: To evaluate the effects of the peptide formulations following topical administration and subconjunctival injection a study in rabbits was undertaken. Animals were acclimated to the study and, upon completion of the acclimation period, each animal was physically examined for determination of suitability for study participation. Animals determined to be in good health were randomized into study groups to achieve averaged mean body weight in each group. (N=24; 3 animals per study group) Animals will be uniquely identified by corresponding cage card number and ear tag.
For topical ocular dosing the designated peptide formulations (35 L) were administered to the eye of each animal using a calibrated pipette. With the animal manually restrained, the upper eyelid of the eye was gently elevated to expose the cornea. Treatment was then be applied to the cornea without contacting the eye with the pipette tip. One topical drop was applied per eye for four days. Tissue collection (aqueous humor) occurred 30 minutes after last dose.
A veterinary ophthalmologist performed complete ocular examinations using a slit lamp biomicroscope and indirect ophthalmoscope to evaluate ocular surface morphology and anterior and posterior segment inflammation on all animals prior to injection to serve as a baseline for enrollment into the study as well as on specific study days. Animals were not tranquilized for the examinations.
At least 1.0 mL of whole blood was drawn from the marginal ear vein or cardiac puncture (terminal bleed only) into K2EDTA tubes for plasma collection. After collection, the tubes were gently mixed by inverting the tubes 5-8 times. Blood samples were stored on wet ice prior to plasma processing. The samples were centrifuged at 4° C. for 10 minutes at 2000 g in a swinging bucket refrigerated centrifuge. Within 20 minutes of the blood collection time, the clear plasma was transferred to prelabelled polypropylene tubes, snap frozen, and stored frozen at approximately −80° C.
Following euthanasia, eyes were enucleated and marked at the 12:00 position. Aqueous humor was removed via a 27 or 30 gauge syringe following a 10-15 second rinse with PBS and blot with Kimwipe, and snap frozen by immersing in liquid nitrogen. The whole globe was then snap frozen in liquid nitrogen and stored at −80° C. to be held for potential dissection. All samples were placed into individual vials and weighed. The plasma and aqueous humor were collected.
The peptides were evaluated for their ocular tolerability and pharmacokinetics following repeated (QID×4 days) topical instillation or a single subconjunctival injection in rabbits. The study examined penetration into the anterior chamber and concentrations in the plasma by measuring at a single time point.

[7] = 5 mg/ml solution, 35 L per eye, Group 1 (single dose), topical 5 mg/ml, OD, Mean, read-out: K173 Concentrations (ng/mL) in Rabbit Aqueous Humor OD Sample, Mean
[8] = 5 mg/ml solution, 35 L per eye, Group 1 (single dose), topical 5 mg/ml, OS, Mean, read-out: K173 Concentrations (ng/mL) in Rabbit Aqueous Humor OS Sample, Mean
[9] = 5 mg/ml solution, 35 L per eye, Group 2 (4 doses), topical 5 mg/ml, OD, Mean, read-out: K173 Concentrations (ng/mL) in Rabbit Aqueous Humor OD Sample, Mean
[10] = 5 mg/ml solution, 35 L per eye, Group 2 (4 doses), topical 5 mg/ml, OS, Mean, read-out: K173 Concentrations (ng/mL) in Rabbit Aqueous Humor OS Sample, Mean
[11] = 5 mg/ml solution, 35 L per eye, Group 3 (8 BID doses), topical 5 mg/ml, OD, Mean, read-out: K173 Concentrations (ng/mL) in Rabbit Aqueous Humor OD Sample, Mean
[12] = 5 mg/ml solution, 35 L per eye, Group 3 (8 BID doses), topical 5 mg/ml, OS, Mean, read-out: K173 Concentrations (ng/mL) in Rabbit Aqueous Humor OS Sample, Mean
[13] = 5 mg/ml, Group 1 (single dose), topical 5 mg/ml, OD, Mean, read-out: K173 Concentrations (ng/mL) in Rabbit Aqueous Humor OD Sample, Mean
[14] = 5 mg/ml, Group 1 (single dose), topical 5 mg/ml, OS, Mean, read-out: K173 Concentrations (ng/mL) in Rabbit Aqueous Humor OS Sample, Mean
[15] = 5 mg/ml, Group 1 (single dose), topical 5 mg/ml, OS, individual animals, read-out: K173 Concentrations (ng/mL) in Rabbit Aqueous Humor OS Sample
[16] = 5 mg/ml, Group 2 (4 doses), topical 5 mg/ml, OD, Mean, read-out: K173 Concentrations (ng/mL) in Rabbit Aqueous Humor OD Sample, Mean
[17] = 5 mg/ml, Group 2 (4 doses), topical 5 mg/ml, OS, Mean, read-out: K173 Concentrations (ng/mL) in Rabbit Aqueous Humor OS Sample, Mean
[18] = 5 mg/ml, Group 2 (4 doses), topical 5 mg/ml, OD, individual animals, read-out: K173 Concentrations (ng/mL) in Rabbit Aqueous Humor OD Sample
[19] = 5 mg/ml, Group 3 (8 BID doses), topical 5 mg/ml, OD, Mean, read-out: K173 Concentrations (ng/mL) in Rabbit Aqueous Humor OD Sample, Mean
[20] = 5 mg/ml, Group 3 (8 BID doses), topical 5 mg/ml, OS, Mean, read-out: K173 Concentrations (ng/mL) in Rabbit Aqueous Humor OS Sample, Mean

`CCCC[C@H](NC(=O)c1cc(O)cc(O)c1)C(=O)N[C@H]1CCCCn2cc(nn2)C[C@@H](C(N)=O)NC(=O)[C@H](Cc2c[nH]c3ccccc23)NC(=O)[C@H](CCCNC(=N)N)NC(=O)[C@@H](Cc2ccc(F)cc2)NC(=O)[C@H](Cc2c[nH]cn2)NC1=O` [KR-072, HyBA-Nle-[Lys(N3)-His-Dphe(4-F)-Arg-Trp-Pra]-NH2] ({Benzoyl(3,5-(OH)2)}-[Nle][Lys(N3)]H[dPhe(4-F)]RW[Pra]-NH2; triazole 2-7) gave a solubility [1] of 6470 µg/mL (≈ 5.58 mM), an EC50 [2] of 98.6 nM and an EC50 [3] of 0.0019 nM. It also gave an IC50 ([3]; cAMP functional assay) of 1.9 pM, a level at 0.5 h [4, 7] of 8.44 ng/mL and a level at 0.5 h [4, 8] of 1.36 ng/mL. The level at 1 h [4, 7] was 1.13 ng/mL, the level at 1 h [4, 8] was 5.22 ng/mL and the level at 0.5 h [4, 9] was 1.9 ng/mL. The level at 0.5 h [4, 10] was 3.47 ng/mL, the level at 1 h [4, 9] was 2.75 ng/mL and the level at 1 h [4, 10] was 2.49 ng/mL. The level at 2 h [4, 11] was 10.5 ng/mL, the level at 2 h [4, 12] was 12.1 ng/mL and the level at 4 h [4, 11] was 11.6 ng/mL. It also gave a level at 4 h [4, 12] of 7.33 ng/mL, a level at 8 h [4, 11] of 5.92 ng/mL and a level at 8 h [4, 12] of 6.42 ng/mL. It also gave a level at 24 h [4, 11] of 3.79 ng/mL, a level at 24 h [4, 12] of 4.45 ng/mL and a level at 2 h [4, 13] of 3.58 ng/mL. It also gave a level at 2 h [4, 14] of 1.89 ng/mL, a level at 4 h [4, 13] of 2.68 ng/mL and a level at 4 h ([4]; 5 mg/ml, Group 1 (single dose), topical 5 mg/ml, OD, individual animals, read-out: K173 Concentrations (ng/mL) in Rabbit Aqueous Humor OD Sample) of 2.94 ng/mL. It also gave a level at 4 h [4, 14] of 3.35 ng/mL, a level at 4 h [4, 15] of 3.56 ng/mL and a level at 8 h [4, 13] of 5.77 ng/mL. For the same molecule, the level at 8 h [4, 14] was 4.2 ng/mL, the level at 8 h [4, 15] was 3.34 ng/mL and the level at 24 h [4, 13] was 3.22 ng/mL. The level at 24 h [4, 14] was 2.46 ng/mL, the level at 24 h [4, 15] was 2.34 ng/mL and the level at 2 h [4, 16] was 5.76 ng/mL. For the same molecule, the level at 2 h [4, 17] was 7.84 ng/mL, the level at 4 h [4, 16] was 4.61 ng/mL and the level at 4 h [4, 17] was 3.86 ng/mL. For the same molecule, the level at 8 h [4, 16] was 10.9 ng/mL, the level at 8 h [4, 18] was 11.3 ng/mL and the level at 8 h [4, 17] was 14.8 ng/mL. It also gave a level at 24 h [4, 16] of 1.98 ng/mL, a level at 24 h [4, 18] of 2.34 ng/mL and a level at 24 h [4, 17] of 2.33 ng/mL. For the same molecule, the level at 24 h ([4]; 5 mg/ml, Group 2 (4 doses), topical 5 mg/ml, OS, individual animals, read-out: K173 Concentrations (ng/mL) in Rabbit Aqueous Humor OS Sample) was 2.3 ng/mL, the level at 0.5 h [4, 19] was 10.3 ng/mL and the level at 0.5 h [4, 20] was 8.11 ng/mL. It also gave a level at 1 h [4, 19] of 5 ng/mL, a level at 1 h ([4]; 5 mg/ml, Group 3 (8 BID doses), topical 5 mg/ml, OD, individual animals, read-out: K173 Concentrations (ng/mL) in Rabbit Aqueous Humor OD Sample) of 5.13 ng/mL and a level at 1 h [4, 20] of 6.56 ng/mL. For the same molecule, the level at 1 h ([4]; 5 mg/ml, Group 3 (8 BID doses), topical 5 mg/ml, OS, individual animals, read-out: K173 Concentrations (ng/mL) in Rabbit Aqueous Humor OS Sample) was 7.48 ng/mL, the “Aqueous humor levels 24 hours after last dose” value ([4]; topical 5 mg/ml, all dose groups) was “measurable levels were detected after 24 hours in all dose groups” and the “ocular surface retention and Tmax” value ([4]; topical, after a single dose) was “prolonged ocular surface retention and Tmax”. For the same molecule, the “K173 level in the neural retina” value [5] was “high levels”, the “K173 presence in brain” value ([5]; hypothalamus, hippocampus, remaining brain) was “found in all parts of the brains” and the “Topical Ocular Permeability (nM ± SEM)” value [6] was 15.5 ± 2.6 nM.
